Source: paper PMC2924647 (The EMBO Journal, 2010)
Where two headings read alike, the source gives them in different places. Positions of bridges follow the written chain, without caps; N, C: chain ends. Chains are numbered I, II in the order given. No end group written: not given here.

Legend:
[1] = system: basal cAMP in cells expressing RXFP1; assay type: cell-based
[2] = system: relaxin-stimulated cAMP via RXFP1; assay type: cell-based
[3] = system: basal cAMP in cells expressing RXFP2 or pcDNA; assay: Effect of PDE inhibition on basal cAMP, HEK293 expressing RXFP2 or pcDNA; assay type: cell-based; details: IBMX 100 μM, 30 min; RXFP1 versus RXFP2 or pcDNA
RXFP2/1 = assay: Single-cell FRET cAMP; details: for EC50: pmEpac2, RXFP2/1
RXFP2 [4] = target: T1, RXFP2 (Homo sapiens, UniProt Q8WXD0); assay: Single-cell FRET cAMP; details: for cellular response to sub-picomolar peptide: RXFP2, pmEpac2
T1 sequence (Q8WXD0 whole entry, species assumed): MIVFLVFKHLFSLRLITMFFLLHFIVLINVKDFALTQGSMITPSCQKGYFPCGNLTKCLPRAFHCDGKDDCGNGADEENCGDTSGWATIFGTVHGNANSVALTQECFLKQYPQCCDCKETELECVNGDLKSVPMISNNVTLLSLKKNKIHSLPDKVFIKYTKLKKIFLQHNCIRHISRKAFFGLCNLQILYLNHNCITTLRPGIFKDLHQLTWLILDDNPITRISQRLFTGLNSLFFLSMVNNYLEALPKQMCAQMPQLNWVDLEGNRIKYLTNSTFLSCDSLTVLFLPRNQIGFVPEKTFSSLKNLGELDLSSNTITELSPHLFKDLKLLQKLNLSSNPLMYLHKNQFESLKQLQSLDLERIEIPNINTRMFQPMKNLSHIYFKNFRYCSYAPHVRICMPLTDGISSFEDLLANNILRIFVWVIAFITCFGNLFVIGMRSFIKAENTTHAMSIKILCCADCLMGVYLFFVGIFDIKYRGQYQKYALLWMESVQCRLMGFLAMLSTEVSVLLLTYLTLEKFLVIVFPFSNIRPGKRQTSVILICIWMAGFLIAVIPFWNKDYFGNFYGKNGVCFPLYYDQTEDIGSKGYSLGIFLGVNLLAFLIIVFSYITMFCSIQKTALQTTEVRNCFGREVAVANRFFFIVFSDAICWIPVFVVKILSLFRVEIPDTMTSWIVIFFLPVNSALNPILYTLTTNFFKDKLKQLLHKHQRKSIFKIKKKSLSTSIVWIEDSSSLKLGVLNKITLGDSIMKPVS

RXFP2 [5] = target: T1, RXFP2; assay: Single-cell FRET cAMP
RXFP1 [6] = target: T2, RXFP1 (Rattus norvegicus, UniProt Q6R6I6); assay: Single-cell FRET cAMP; details: rat cardiac fibroblasts
T2 sequence (Q6R6I6 1-758): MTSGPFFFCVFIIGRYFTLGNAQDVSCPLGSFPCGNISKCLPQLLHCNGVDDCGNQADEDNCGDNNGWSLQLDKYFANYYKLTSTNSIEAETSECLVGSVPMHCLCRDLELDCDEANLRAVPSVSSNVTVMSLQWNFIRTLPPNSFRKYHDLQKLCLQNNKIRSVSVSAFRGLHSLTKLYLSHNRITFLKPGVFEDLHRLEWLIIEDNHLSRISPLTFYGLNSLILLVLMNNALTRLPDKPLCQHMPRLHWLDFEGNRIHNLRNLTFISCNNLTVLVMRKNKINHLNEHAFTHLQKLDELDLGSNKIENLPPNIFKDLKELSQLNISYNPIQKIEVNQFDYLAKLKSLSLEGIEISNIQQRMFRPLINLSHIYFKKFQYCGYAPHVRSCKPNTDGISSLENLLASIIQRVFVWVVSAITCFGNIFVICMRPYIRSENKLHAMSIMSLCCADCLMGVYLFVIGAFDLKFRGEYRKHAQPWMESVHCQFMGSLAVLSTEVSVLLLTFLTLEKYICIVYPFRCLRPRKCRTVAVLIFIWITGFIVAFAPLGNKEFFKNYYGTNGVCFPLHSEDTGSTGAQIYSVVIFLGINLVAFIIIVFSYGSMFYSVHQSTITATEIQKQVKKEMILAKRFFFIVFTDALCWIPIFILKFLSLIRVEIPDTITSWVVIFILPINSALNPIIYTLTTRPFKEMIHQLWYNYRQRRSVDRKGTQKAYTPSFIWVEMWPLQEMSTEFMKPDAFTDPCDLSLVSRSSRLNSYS

RXFP1 [7] = target: T3, RXFP1 (Homo sapiens, UniProt Q9HBX9); assay: Single-cell FRET cAMP; details: HeLa, forskolin 1 μM
T3 sequence (Q9HBX9 1-757): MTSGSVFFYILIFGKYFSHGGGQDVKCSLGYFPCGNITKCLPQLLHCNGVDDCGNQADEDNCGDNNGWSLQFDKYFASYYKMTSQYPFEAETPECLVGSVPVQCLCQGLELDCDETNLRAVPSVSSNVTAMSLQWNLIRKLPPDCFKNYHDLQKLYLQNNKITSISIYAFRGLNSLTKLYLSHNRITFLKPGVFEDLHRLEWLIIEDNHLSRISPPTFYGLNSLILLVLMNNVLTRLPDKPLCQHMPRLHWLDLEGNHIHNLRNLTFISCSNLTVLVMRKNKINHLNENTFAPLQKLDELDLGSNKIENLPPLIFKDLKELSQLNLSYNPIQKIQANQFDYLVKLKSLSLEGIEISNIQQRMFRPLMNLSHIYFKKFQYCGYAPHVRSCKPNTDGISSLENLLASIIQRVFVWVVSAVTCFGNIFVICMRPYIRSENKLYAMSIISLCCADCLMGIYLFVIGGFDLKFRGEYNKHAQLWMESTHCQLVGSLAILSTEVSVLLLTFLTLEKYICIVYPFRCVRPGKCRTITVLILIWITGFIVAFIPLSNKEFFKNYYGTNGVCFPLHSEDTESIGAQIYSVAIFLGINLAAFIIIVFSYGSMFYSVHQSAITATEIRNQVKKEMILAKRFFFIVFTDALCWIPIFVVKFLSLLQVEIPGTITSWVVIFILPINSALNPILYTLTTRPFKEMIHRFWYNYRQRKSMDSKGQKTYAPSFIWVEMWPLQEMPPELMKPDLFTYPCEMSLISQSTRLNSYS

RXFP1 [8] = target: T3, RXFP1; assay: Single-cell FRET cAMP; details: first phase, biphasic fit, 5 min AUC, glEpac2, HEK293-RXFP1; mean±s.e.m.
[9] = system: AC2-HA / RXFP1 signalosome; assay: AC2-HA co-immunoprecipitation from HEK293 cells co-expressing FLAG-RXFP1; details: 5 min, n=3
RXFP1 [10] = target: T3, RXFP1; assay: Single-cell FRET cAMP
[11] = system: PDE4D3 / RXFP1 signalosome; assay: PDE4D3; details: 5 min, n=3
RXFP1 S755A = assay: Single-cell FRET cAMP; details: glEpac2
RXFP1 [12] = system: RXFP1
HEK293 cells = assay: Single-cell FRET control, HEK293 cells expressing pmEpac2 alone; details: no RXFP1, relaxin 1 nM
tRXFP1-703 = assay: Single-cell FRET cAMP
tRXFP1-747 = assay: Single-cell FRET cAMP; details: tRXFP1-747, glEpac2
RXFP1/2 = assay: Single-cell FRET cAMP; details: relaxin 10 aM–100 μM, RXFP1/2, pmEpac2

Compound: O=S(=O)(NCCNC/C=C/c1ccc(Br)cc1)c1cccc2cnccc12 [H89]
- effect on basal cAMP [1]: basal cAMP levels were significantly increased
- effect on cAMP response to sub-picomolar (10 fM) relaxin [2]: no further increase in cAMP

Compound: CC(C)Cn1c(=O)n(C)c(=O)c2[nH]cnc21 [IBMX, 3-isobutyl-1-methylxanthine]
- effect on basal cAMP [1]: significantly increased basal cAMP
- effect on basal cAMP, RXFP1-dependence [3]: significantly increased basal cAMP only in cells expressing RXFP1
- effect on biphasic relaxin concentration–response curve [2]: abolished the biphasic concentration–response curve
- effect on cAMP response to sub-picomolar (10 fM) relaxin [2]: no further increase following stimulation with 10 fM relaxin

Compound: CCCCCCOC(=O)[C@]1(O)C[C@@H]2O[C@@]1(C)n1c3ccccc3c3c4c(c5c6ccccc6n2c5c31)C(=O)NC4 [KT5720]
- effect on basal cAMP [1]: basal cAMP levels were significantly increased
- effect on cAMP response to sub-picomolar (10 fM) relaxin [2]: no further increase in cAMP

Compound: O=C(Nc1cc(C(=O)Nc2ccc(S(=O)(=O)O)cc2S(=O)(=O)O)cc(C(=O)Nc2ccc(S(=O)(=O)O)cc2S(=O)(=O)O)c1)Nc1cc(C(=O)Nc2ccc(S(=O)(=O)O)cc2S(=O)(=O)O)cc(C(=O)Nc2ccc(S(=O)(=O)O)cc2S(=O)(=O)O)c1 [NF449]
- effect on cAMP response to sub-picomolar (10 fM) relaxin [2]: significantly inhibited the 10 fM relaxin response

Compound: CCCCOc1cc(CC2CNC(=O)N2)ccc1OC (centres unmarked) [Ro 20-1724]
- effect on basal cAMP [1]: significantly increased basal cAMP
- effect on cAMP response to sub-picomolar (10 fM) relaxin [2]: no further increase following stimulation with 10 fM relaxin

Compound: CN(C(=O)CCCOc1ccc2[nH]c(=O)ccc2c1)C1CCCCC1 [cilostamide]
- effect on basal cAMP [1]: no significant effect
- effect on cAMP response to sub-picomolar (10 fM) relaxin [2]: remained responsive to stimulation with 10 fM relaxin

Compound: C[C@H]1O[C@@H](n2cnc3c(N)ncnc32)C[C@@H]1OP(=O)(OCCSC(=O)C(C)(C)C)OCCSC(=O)C(C)(C)C [ddAB, 2′,5′-dd-3′-AMP-bis(tBuSATE)]
- effect on cAMP response to sub-picomolar (10 fM) relaxin [2]: completely abolished the response to 10 fM relaxin

Compound: O=C1OC2(c3ccccc31)c1ccc(O)c(O)c1Oc1c2ccc(O)c1O [gallein]
- effect on cAMP response to sub-picomolar (10 fM) relaxin [2]: completely abolished the cAMP accumulation stimulated by 10 fM relaxin

Compound: I: PTPEMREKLCGHHFVRALVRVCGGPRWSTEA / II: AAATNPARYCCLSGCTQQDLLTLCPY (disulfide I:10-II:11, I:22-II:24, II:10-II:15) [INSL3]
- cAMP accumulation at sub-picomolar concentrations (RXFP2/1; RXFP2/1, pmEpac2): not the closely related peptide INSL3, increased cAMP accumulation at sub-picomolar concentrations
- EC50 (RXFP2/1; read-out: INSL3 EC50, mean±s.e.m.): 0.26 ± 0.04 nM
- EC50 (RXFP2 [4]): 1.42 ± 0.92 nM
- cellular response to sub-picomolar peptide (RXFP2 [4]): no evidence of a cellular response
- EC50 (RXFP2 [5]): 7.74 ± 1.67 nM

Compound: PTX
- effect on shape of relaxin concentration–response curve (RXFP1 [6]; PTX pre-treatment): revealed a biphasic, stimulatory concentration–response curve
- effect on shape of relaxin concentration–response curve (RXFP1 [7]; PTX 100 ng/ml, 16 h): revealed the biphasic concentration–response curve
- effect on cAMP response to sub-picomolar (10 fM) relaxin [2]: did not affect the cAMP response to sub-picomolar concentrations of relaxin
- effect on maximal / classical cAMP response to relaxin [2]: the maximal cAMP response to relaxin was enhanced

Compound: Relaxin
- Relaxin EC50 1 (RXFP1 [8]): 140.34±20.73 aM
- cAMP accumulation at sub-picomolar concentrations (RXFP2/1; RXFP2/1, pmEpac2): increased cAMP accumulation at sub-picomolar concentrations
- Relaxin EC50 1 (RXFP2/1; first phase, pmEpac2, RXFP2/1 (RXFP2-ectodomain, RXFP1-transmembrane/C-terminus), mean±s.e.m.): 7.86±1.30 aM
- EC50 (RXFP2/1; read-out: Relaxin EC50 2, second phase, mean±s.e.m.): 0.33 ± 0.08 nM
- biphasic cAMP response (RXFP2/1; relaxin 10 aM–100 μM, RXFP2/1, pmEpac2): a biphasic response was evident
- association of AC2 with RXFP1 / stimulatory sub-complex ([9]; relaxin 10 nM): reduces the association between RXFP1 and PDE4D3 or AC2
- association of AC2 with RXFP1 / stimulatory sub-complex ([9]; relaxin 10 fM): not 10 fM
- Relaxin EC50 1 (RXFP1 [10]; first phase, biphasic fit, 5 min AUC, pmEpac2, HEK293-RXFP1, mean±s.e.m.): 10.93±0.92 aM
- saturation of pmEpac2 sensor / response relative to FIP (RXFP1 [10]; maximal relaxin 100 nM versus FIP (10 μM forskolin, 100 μM IBMX, 100 nM PGE1)): did not saturate the pmEpac2 sensor
- cAMP response to sub-picomolar relaxin (RXFP1 [6]; forskolin 1 μM, without PTX): significant increase in cAMP, which then declined within the classical concentration range
- cAMP response to relaxin (RXFP1 [7]; without PTX, glEpac2): significant concentration-dependent increase in cAMP, which was maintained within the classical relaxin concentration range
- association of PDE4D3 with RXFP1 / regulatory sub-complex ([11]; relaxin 10 nM): reduces the association between RXFP1 and PDE4D3 or AC2
- association of PDE4D3 with RXFP1 / regulatory sub-complex ([11]; relaxin 10 fM): not 10 fM
- cAMP response to sub-picomolar relaxin, effect of mutation (RXFP1 S755A): no effect
- cAMP response (RXFP1 [12]): no detectable cAMP response
- cAMP response (HEK293 cells): no detectable cAMP response
- response to sub-picomolar relaxin (tRXFP1-703; tRXFP1-703 (truncated following helix 8), glEpac2): remained responsive to stimulation with sub-picomolar concentrations of relaxin
- maximal cAMP response to relaxin (tRXFP1-703; tRXFP1-703, glEpac2): reduced following truncation
- cAMP response to sub-picomolar relaxin, effect of mutation (tRXFP1-747): no effect
- maximal cAMP response to relaxin (tRXFP1-747): reduced through tRXFP1-747
- cellular response to sub-picomolar peptide (RXFP2 [4]): no evidence of a cellular response
- EC50 (RXFP2 [4]; read-out: Relaxin EC50 2, pmEpac2, HEK293-RXFP2, 5 min AUC, mean±s.e.m.): 18.1 ± 3.84 nM
- biphasic cAMP response (RXFP1/2): not RXFP1/2
- EC50 (RXFP2 [5]; read-out: Relaxin EC50 2, glEpac2, HEK293-RXFP2, 5 min AUC, mean±s.e.m.): 57.7 ± 6.94 nM

Compound: cholera toxin
- effect on basal cAMP [1]: potentiated basal
- effect on cAMP response to sub-picomolar (10 fM) relaxin [2]: response to 10 fM relaxin reaching the maximal relaxin response
